The record followed here is ChEMBL document CHEMBL1201862, “PubChem BioAssay data set” (2004).

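1) Cells in 96-well plates. 2) Compound, 48 h, 5 concentrations. 3) Linear interpolation between surrounding doses. 4) Unreached endpoint = highest concentration. The concentration for 50% growth inhibition is given as GI50.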 Activity calls are given as the source filed them. No stated cut-off is given here; in the data, active = GI50 up to about 1.1 µM and inactive = higher.

Some test systems named below: M19-MEL; KM-20L2; HOP-18; DMS-114; Hs-578T; RXF 631; LXFL 529; BT-549; 786-0.
Holding throughout (assay): growth of human tumour cells (NCI), 48 h

With `O=C(O)c1cn2c3c(cc(N4CCN(CCO)CC4)cc3c1=O)SCC2`, the GI50 in the assay on M19-MEL was > 80.7 µM (inactive); with KM-20L2, > 100 µM (inactive); with HOP-18, > 79.3 µM (inactive); in the assay on DMS-114, 51.3 µM (inactive).
With `C=CC1OC(CCCOC(=O)C(C)(C)C)O[C@@H]1CC` (stereo partly drawn), in the assay with Hs-578T, the GI50 is > 100 µM (inactive).
Turning to `Cc1ccc(C)c(NC(=O)C(=O)C(C(=O)c2ccc3ccccc3c2)C2OC(=O)c3ccccc32)c1` (stereo not drawn), the GI50 was 12.7 µM (inactive) in the assay on M19-MEL; 21.3 µM (inactive) with KM-20L2; 16.1 µM (inactive) with RXF 631; 7.21 µM (inactive) with DMS-114; 7.59 µM (inactive) in the assay with LXFL 529.
Take `CCN1c2ccccc2NC(=S)c2c(-c3ccccc3)n[nH]c21`: the GI50 is 45.5 µM (inactive) in the assay on BT-549 and 75.5 µM (inactive) with Hs-578T.
`OC1CCSc2ccccc21` (stereo not drawn): the GI50 in the assay on M19-MEL, in the assay on KM-20L2, with HOP-18, with DMS-114 and in the assay on LXFL 529 was > 100 µM (inactive) in each case.
With `O=S(=O)(c1ccccc1)C1CC(c2nc3ccccc3[nH]2)=NO1` (stereo not drawn), the GI50 in the assay on BT-549 and in the assay with Hs-578T was > 100 µM (inactive) each time.
Consider `CC[C@@]1(O)C[C@H](OC2CC(N(C)C)C(O)C(C)O2)c2c(cc3c(c2O)C(=O)c2c(O)ccc(O)c2C3=O)[C@H]1C(=O)OC` (stereo partly drawn), for which the GI50 is 0.0461 µM (active) in the assay on M19-MEL, 0.0702 µM (active) with KM-20L2, 0.212 µM (active) with HOP-18 and 0.119 µM (active) in the assay with DMS-114.
Regarding `Nc1ccn(C2OC(CO)C(O)C2(F)F)c(=O)n1` (stereo not drawn), the results for the GI50 with BT-549 and with 786-0 were 0.33 µM (active) and 0.055 µM (active), respectively.
As for `CCOC(=O)c1c(NC(=O)Nc2ccccc2)c(C(N)=O)c2n1CCCCC2`, the GI50 with BT-549, with Hs-578T and in the assay with 786-0 was > 100 µM (inactive) throughout.
On to `CCOP(=O)(COCCn1nc(Br)c(=O)[nH]c1=O)OCC`, for which the GI50 in the assay with Hs-578T was > 100 µM (inactive).
Consider `O=C(Nc1ccc(Cl)cc1)C(=O)C(C(=O)c1ccccc1-c1ccccc1)C1OC(=O)c2ccccc21` (stereo not drawn), for which the GI50 with M19-MEL is 19.4 µM (inactive); in the assay on KM-20L2, 23.7 µM (inactive); in the assay on DMS-114, 16.7 µM (inactive); in the assay on LXFL 529, 16 µM (inactive).
For the compound `Cc1cccc(C(O)c2ccccn2)c1O` (stereo not drawn), the GI50 in the assay with BT-549 and with Hs-578T was > 100 µM (inactive) throughout.
Consider `COc1cc(C2S/C(=C/c3ccccc3)C(=O)N2c2cccc(NC(C)=O)c2)cc(OC)c1OC` (stereo not drawn), for which the GI50 with BT-549 is 24.7 µM (inactive); in the assay with Hs-578T, 15.3 µM (inactive).
Consider `O=C(N/C=C1\C(=O)Oc2ccccc2C1=O)NC1CCCCC1`, for which the GI50 in the assay with M19-MEL is 73.5 µM (inactive); in the assay on KM-20L2 it was > 100 µM (inactive); with DMS-114, 45.3 µM (inactive); in the assay on LXFL 529 it was 63.1 µM (inactive).
Regarding `CN1C[C@H]2[C@@H](C1=O)[C@H](c1ccc([N+](=O)[O-])cc1)ON2C`, the GI50 in the assay with Hs-578T was > 100 µM (inactive).
Turning to `Cc1ccc(C2=C(C#N)C(N)OC3=C2COc2ccccc23)cc1` (stereo not drawn), in the assay on BT-549, the GI50 is > 100 µM (inactive).
With `OC(c1cccnc1Cl)c1nc2ccccc2c2ccnc(Cl)c12` (stereo not drawn), the GI50 with BT-549 was 5.79 µM (inactive); in the assay with Hs-578T it was 2.72 µM (inactive).
For `CC(C)=CC1CC(=O)C1(C)Sc1ccccc1` (stereo not drawn), the GI50 was 27.5 µM (inactive) with M19-MEL; 36.3 µM (inactive) in the assay with KM-20L2; 28 µM (inactive) in the assay with RXF 631; > 100 µM (inactive) in the assay on HOP-18; 16.6 µM (inactive) in the assay on DMS-114; 50.7 µM (inactive) with 786-0. The GI50 in the assay on LXFL 529 is 42.7 µM (inactive).
As for `Cc1cc(O)c(C(C)C)cc1SC#N`, the GI50 was 19.6 µM (inactive) in the assay with BT-549 and 20.5 µM (inactive) with Hs-578T.
On to `O=S(=O)(O)c1ccc(/N=N\c2ccc(/N=N\c3ccc(/C=C/c4ccc(/N=[N+](/[O-])c5ccc(/C=C/c6ccc(/N=N/c7ccc(/N=N\c8ccc(S(=O)(=O)O)cc8)cc7)cc6S(=O)(=O)O)c(S(=O)(=O)O)c5)cc4S(=O)(=O)O)c(S(=O)(=O)O)c3)cc2)cc1`, for which the GI50 in the assay on M19-MEL, in the assay with KM-20L2, in the assay on HOP-18 and with DMS-114 was > 100 µM (inactive) in each case.
`CC(=O)OC[C@H]1[C@@H]2C(CC[C@]13CO3)OC(=O)CC(C)[C@]2(C)CCc1ccoc1` (stereo partly drawn): the GI50 in the assay on BT-549 and in the assay on Hs-578T was > 100 µM (inactive) in each case.
As for `COc1cc(O)c2c(c1)C(=O)c1cc3c(c(O)c1C2=O)C(OC1OC(C)C(O)C(O)C1OC)C(OC)C(C)(O)C3=O` (stereo not drawn), the GI50 in the assay with M19-MEL was 0.532 µM (active); in the assay with KM-20L2, 1.1 µM (active); in the assay with HOP-18, 5.16 µM (inactive); in the assay on DMS-114, 1.61 µM (inactive).
In the same order, the values of `O=Cc1c(Cn2ccnc2)c2cc([N+](=O)[O-])ccc2n1Cc1ccccc1` are > 69.2 µM (inactive), 89.9 µM (inactive), > 25.8 µM (inactive) and > 100 µM (inactive).
